Laboratory results: the supplement of paper PMC8617591

Assays:
[1] = tested on: Mycobacterium tuberculosis Erdman (autoluminescent); assay: Einf, fitted maximum growth inhibition of three-drug combination (fraction); higher = stronger maximal inhibition
Method: (§1)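 DiaMOND equipotent three-drug combination dose responses (10 doses, 1.5- or 2-fold spacing, centred on IC90) against autoluminescent M. tuberculosis Erdman in 8 in vitro models. Read-out is OD600, or luminescence for the intracellular and dormancy models, normalised to untreated wells. Hill-fit Einf, AUC25 and GRinf are potency metrics; FIC50 and FIC90 are total Loewe fractional inhibitory concentrations as log2 (negative = synergy).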

[2] = tested on: Mycobacterium tuberculosis Erdman (autoluminescent); assay: total FIC90 (Loewe) at 90% inhibition, three-drug combination (log2); higher = more antagonistic
Method: as §1

[3] = tested on: Mycobacterium tuberculosis Erdman (autoluminescent); assay: total FIC50 (Loewe) at 50% inhibition, three-drug combination (log2); higher = more antagonistic
Method: as §1

[4] = tested on: Mycobacterium tuberculosis Erdman (autoluminescent); assay: GRinf, maximum normalised growth rate inhibition (three-drug combination) (unitless (-1 to 1)); higher = less effect (negative = killing)
Method: as §1

[5] = tested on: Mycobacterium tuberculosis Erdman (autoluminescent); assay: AUC25, normalised area under dose response up to IC25 (three-drug combination) (fraction (0-1)); higher = more potent at low dose
Method: as §1

CC(C)/N=c1\cc2n(-c3ccc(Cl)cc3)c3ccccc3nc-2cc1Nc1ccc(Cl)cc1 [clofazimine] + CC(=O)NC[C@H]1CN(c2ccc(N3CCOCC3)c(F)c2)C(=O)O1 [linezolid] + NC(=O)c1cnccn1 [pyrazinamide]
Details	AUC25, [5]	Einf, [1]	GRinf, [4]	total FIC50, [3]	total FIC90, [2]
in vitro model: acidic pH 5.7, time point: constant (~7 days, model-specific)	0.115	0.851	-0.367	-0.389	–
in vitro model: acidic pH 5.7, time point: terminal (~4-5 doublings, model-specific)	0.099	0.964	-0.333	0.309	-1.87
in vitro model: intracellular J774, time point: constant = terminal	–	0.935	-0.0585	–	0.0502

Details	AUC25, [5]	Einf, [1]	GRinf, [4]	total FIC50, [3]	total FIC90, [2]
in vitro model: butyrate, time point: constant (~7 days, model-specific)	0.121	0.931	-0.0985	-0.132	1.31
in vitro model: butyrate, time point: terminal (~4-5 doublings, model-specific)	0.08	0.95	-0.0789	-0.0376	0.0936
in vitro model: cholesterol 0.05 mM, time point: constant (~7 days, model-specific)	0.131	0.722	-0.114	–	–
in vitro model: cholesterol 0.05 mM, time point: terminal (~4-5 doublings, model-specific)	0.142	0.927	-0.198	0.348	–
in vitro model: cholesterol-high 0.2 mM, time point: constant (~7 days, model-specific)	0.137	0.934	-0.71	0.27	–
in vitro model: cholesterol-high 0.2 mM, time point: terminal (~4-5 doublings, model-specific)	0.128	1	-0.983	-0.375	0.282
in vitro model: dormancy (butyrate + nitrate, low O2), time point: constant (~7 days, model-specific)	0.104	0.958	-0.0605	0.947	1.54
in vitro model: dormancy (butyrate + nitrate, low O2), time point: terminal (~4-5 doublings, model-specific)	0.0414	0.986	-0.449	0.584	0.337
in vitro model: standard 7H9 glycerol, time point: constant = terminal	0.123	0.939	-0.131	0.477	–
in vitro model: valerate, time point: constant (~7 days, model-specific)	0.119	0.8	0.241	0.731	–
in vitro model: valerate, time point: terminal (~4-5 doublings, model-specific)	0.0593	0.874	0.183	0.277	-1.05

CC(C)/N=c1\cc2n(-c3ccc(Cl)cc3)c3ccccc3nc-2cc1Nc1ccc(Cl)cc1 [clofazimine] + CC(=O)NC[C@H]1CN(c2ccc(N3CCOCC3)c(F)c2)C(=O)O1 [linezolid] + O=[N+]([O-])c1cn2c(n1)OC[C@@H](OCc1ccc(OC(F)(F)F)cc1)C2 [pretomanid]
Details	AUC25, [5]	Einf, [1]	GRinf, [4]	total FIC50, [3]	total FIC90, [2]
in vitro model: acidic pH 5.7, time point: constant (~7 days, model-specific)	0.106	0.845	-0.45	0.0449	–
in vitro model: acidic pH 5.7, time point: terminal (~4-5 doublings, model-specific)	0.0757	0.964	-0.318	1.03	0.257
in vitro model: intracellular J774, time point: constant = terminal	–	0.996	-0.884	–	1.09

Details	AUC25, [5]	Einf, [1]	GRinf, [4]	total FIC50, [3]	total FIC90, [2]
in vitro model: butyrate, time point: constant (~7 days, model-specific)	0.124	0.962	-0.311	0.534	1.52
in vitro model: butyrate, time point: terminal (~4-5 doublings, model-specific)	0.0915	0.98	-0.185	0.691	1.09
in vitro model: cholesterol 0.05 mM, time point: constant (~7 days, model-specific)	0.133	0.677	-0.0316	-0.375	–
in vitro model: cholesterol 0.05 mM, time point: terminal (~4-5 doublings, model-specific)	0.136	0.918	-0.14	0.13	2.05
in vitro model: cholesterol-high 0.2 mM, time point: constant (~7 days, model-specific)	0.116	0.922	-0.441	0.0459	1.18
in vitro model: cholesterol-high 0.2 mM, time point: terminal (~4-5 doublings, model-specific)	0.123	1	-0.938	-0.122	0.391
in vitro model: dormancy (butyrate + nitrate, low O2), time point: constant (~7 days, model-specific)	0.0841	0.925	0.221	0.87	1.32
in vitro model: dormancy (butyrate + nitrate, low O2), time point: terminal (~4-5 doublings, model-specific)	0.0337	0.986	-0.216	0.422	0.0103
in vitro model: standard 7H9 glycerol, time point: constant = terminal	0.128	0.951	-0.277	0.0629	0.915
in vitro model: valerate, time point: constant (~7 days, model-specific)	0.14	0.85	-0.138	0.292	–
in vitro model: valerate, time point: terminal (~4-5 doublings, model-specific)	0.0928	0.892	0.125	0.0202	1.37

CC(C)/N=c1\cc2n(-c3ccc(Cl)cc3)c3ccccc3nc-2cc1Nc1ccc(Cl)cc1 [clofazimine] + CC[C@@H](CO)NCCN[C@@H](CC)CO [ethambutol] + CC(=O)NC[C@H]1CN(c2ccc(N3CCOCC3)c(F)c2)C(=O)O1 [linezolid]
Details	AUC25, [5]	Einf, [1]	GRinf, [4]	total FIC50, [3]	total FIC90, [2]
in vitro model: acidic pH 5.7, time point: constant (~7 days, model-specific)	0.105	0.811	-0.393	0.0935	–
in vitro model: acidic pH 5.7, time point: terminal (~4-5 doublings, model-specific)	0.0957	0.963	-0.297	0.906	0.401
in vitro model: intracellular J774, time point: constant = terminal	–	1	-0.815	–	0.836

Details	AUC25, [5]	Einf, [1]	GRinf, [4]	total FIC50, [3]	total FIC90, [2]
in vitro model: butyrate, time point: constant (~7 days, model-specific)	0.11	0.96	-0.165	0.534	–
in vitro model: butyrate, time point: terminal (~4-5 doublings, model-specific)	0.0792	0.977	-0.123	0.703	0.483
in vitro model: cholesterol 0.05 mM, time point: constant (~7 days, model-specific)	0.148	0.746	-0.203	–	–
in vitro model: cholesterol 0.05 mM, time point: terminal (~4-5 doublings, model-specific)	0.165	0.917	-0.514	-0.786	–
in vitro model: cholesterol-high 0.2 mM, time point: constant (~7 days, model-specific)	0.129	0.925	-1	0.0764	–
in vitro model: cholesterol-high 0.2 mM, time point: terminal (~4-5 doublings, model-specific)	0.125	1	-0.967	-0.259	0.74
in vitro model: dormancy (butyrate + nitrate, low O2), time point: constant (~7 days, model-specific)	0.0953	0.783	0.496	0.231	–
in vitro model: dormancy (butyrate + nitrate, low O2), time point: terminal (~4-5 doublings, model-specific)	0.0972	0.963	-0.701	0.197	0.279
in vitro model: standard 7H9 glycerol, time point: constant = terminal	0.122	0.949	-0.0541	0.243	–
in vitro model: valerate, time point: constant (~7 days, model-specific)	0.11	0.869	-0.282	0.664	–
in vitro model: valerate, time point: terminal (~4-5 doublings, model-specific)	0.0648	0.881	-0.0657	0.302	-0.133
